Experimental data: PMC12163822, “Synthesis and Pharmacological Characterization of a Novel Cannabinoid Receptor 1 Antagonist” (ACS Omega, 2025)
“Also recorded” adds a separate entry of the source. Like-named read-outs stand apart in the source and are kept apart here.

Columns and labels:
cannabinoid receptors = assay: [3H]CP55,940 competition binding in rat brain cortex membrane homogenates; set-up: species or system Sprague-Dawley rat; conditions: for IC50: vs [3H]CP55,940, rat brain cortex membranes
Procedure: Sprague–Dawley rats (n = 5) were anesthetized and sacrificed by decapitation. Spleens and brains were then quickly removed by dissection at 4 °C, and in the case of the brain tissue, the cortex was dissected for the preparation of the membrane homogenates. For this procedure, spleen and cortex samples were homogenized using a Teflon-glass grinder (15 up-and-down strokes at 800 rpm) in 30 volumes of homogenization buffer (1 mM EGTA, 3 mM MgCl2, 50 mM Tris–HCl; pH 7.4) supplemented with […], at 4 °C. The obtained homogenates were centrifuged for 5 min at 1500 rpm. Pellets were removed, and supernatants were centrifuged again for 15 min at 14,000 rpm. For washing, the obtained pellets were resuspended in a buffer and centrifuged again, and the supernatant was removed. The resulting aliquots were stored at −80 °C until use.
(§1) To stop the reaction, an ice-cold wash buffer (50 mM Tris–HCl and 0.5% BSA, pH 7.4) was added. Then, the membranes were retained by vacuum filtration to a Whatman GF/C glass microfiber filter (Sigma-Aldrich, St. Louis, MO, USA) and the free radioligand was discarded. Filters with the bound radioligand were transferred to vials containing 5 mL of Ultima Gold cocktail (Revvity, Boston, MA, USA) and measured with a Packard Tri-Carb 2200CA liquid scintillation counter (Revvity, Boston, MA, USA).
Data from radioligand affinity assays were analyzed by using nonlinear regression. A comparison of fits was performed for every curve and the preferred model (one site vs two sites) was chosen in each case. Curves were fitted to the pooled data from multiple experiments. For the evaluation of data from autoradiographic assays, the Kruskal–Wallis test followed by Dunn’s post hoc tests for multiple comparisons was performed. For statistical significance, the threshold was set at p = 0.05. The number of replicates or animal sample number used in each case is stated in the figure legends. GraphPad Prism 9 (GraphPad Software) was employed for data analysis and presentation.

CB1 receptor [1] = biological target: T1, CB1 receptor (Rattus norvegicus, UniProt P20272); assay: Functional [35S]GTPγS autoradiography in rat brain slices; type: biochemical, Sprague-Dawley rat; set-up: fresh frozen sections from brain samples from wild-type; from tissue; host or cells: Sprague-Dawley rat brain sections; conditions: for [35S]GTPγS binding, Stimulation (% over basal), CP55,940 + UVI3502 / [35S]GTPγS binding, Stimulation (% over basal): rat; for [35S]GTPγS binding, Stimulation (% over basal), CP55,940 + UVI3502: CP55,940 and UVI3502 both at 10 µM; for [35S]GTPγS binding, Stimulation (% over basal): compound alone 10 µM
T1 sequence (P20272 whole entry): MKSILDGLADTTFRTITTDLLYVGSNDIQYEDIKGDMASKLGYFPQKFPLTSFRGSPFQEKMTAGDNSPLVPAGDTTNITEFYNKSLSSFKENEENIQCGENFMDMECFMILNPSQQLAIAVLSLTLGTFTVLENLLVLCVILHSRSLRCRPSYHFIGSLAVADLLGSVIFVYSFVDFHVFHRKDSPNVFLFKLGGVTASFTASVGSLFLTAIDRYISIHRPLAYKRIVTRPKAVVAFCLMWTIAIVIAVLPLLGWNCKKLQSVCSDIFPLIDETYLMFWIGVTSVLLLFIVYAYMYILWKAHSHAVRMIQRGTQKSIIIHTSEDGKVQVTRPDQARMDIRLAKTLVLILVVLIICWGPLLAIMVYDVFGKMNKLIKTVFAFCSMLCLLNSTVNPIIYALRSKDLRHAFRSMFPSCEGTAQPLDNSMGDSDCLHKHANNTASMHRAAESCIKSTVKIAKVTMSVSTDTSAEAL
Procedure: All brain sections were air-dried for 30 min and then immersed in Coplin jars for preincubation (4 times, 15 min each time) in an HEPES-based buffer (50 mM HEPES, 100 mM NaCl, 3 mM MgCl2, 0.2 mM EGTA, 0.5% BSA; pH 7.4) at 30 °C. The objective of this preincubation was the removal of endogenous ligands. […] Basal [^35S]-GTPγS binding was defined in the absence of the agonists in two consecutive slices. To define nonspecific binding, 10 μM of unlabeled GTPγS was added to the incubation in another section. Following incubation, slices were twice washed in an ice-cold 50 mM HEPES buffer (pH 7.4), dried, and exposed for 48 h to β-radiation sensitive film with a set of [^14C] standards calibrated for [^35S]. Calibrated films were scanned and quantified using Fiji software (Fiji, Bethesda, […], USA). The signal corresponding to nonspecific binding was previously subtracted from the basal and agonist-stimulated binding. Then, the data was expressed as the percentage of stimulation over basal following the formula: ([^35S]-GTPγS agonist-stimulated binding) × 100/([^35S]-GTPγS basal binding)-100.

CB1 receptor [2] = biological target: T1, CB1 receptor; assay: [35S]GTPγS functional binding assay in rat cortex membrane homogenates; type: biochemical; set-up: functional assays in membrane homogenates from the rat cortical tissue; from tissue; host or cells: Sprague-Dawley rat brain cortex
Procedure: (§2) The compound with the best affinity was also tested using functional [^35S]-GTPγS binding assays to characterize its activity as an agonist or antagonist/inverse agonist. A protein concentration of 0.1 mg/mL of rat cortex homogenates and a protein concentration of 0.02 mg/mL of commercial CB1 overexpressing CHO cells were used for these assays, suspended in a reaction buffer (Tris–HCl 50 mM, EGTA 1 mM, MgCl2 3 mM, NaCl 100 mM, 0.5% BSA; pH 7.4). The target compound was used in concentrations ranging from 10^–11 to 10^–4 M and incubated for 2 h at 37 °C with agitation in the presence of 0.5 nM [^35S]-GTPγS and 50 μM GDP. Basal coupling of [^35S]-GTPγS to Gi/o proteins was determined by incubating the membrane aliquots with the radioligand in the absence of the target compound. To define nonspecific binding, 10 μM of unlabeled GTPγS was added to the incubation.

human CB1 receptor [3] = biological target: T2, human CB1 receptor (Homo sapiens, UniProt P21554); assay: [35S]GTPγS functional binding assay in CHO cells overexpressing human CB1; type: biochemical; conditions: CB1 overexpressing CHO membranes, result in words
T2 construct: purchased Sigma-Aldrich; host or cells: CHO cells
T2 sequence (P21554 whole entry): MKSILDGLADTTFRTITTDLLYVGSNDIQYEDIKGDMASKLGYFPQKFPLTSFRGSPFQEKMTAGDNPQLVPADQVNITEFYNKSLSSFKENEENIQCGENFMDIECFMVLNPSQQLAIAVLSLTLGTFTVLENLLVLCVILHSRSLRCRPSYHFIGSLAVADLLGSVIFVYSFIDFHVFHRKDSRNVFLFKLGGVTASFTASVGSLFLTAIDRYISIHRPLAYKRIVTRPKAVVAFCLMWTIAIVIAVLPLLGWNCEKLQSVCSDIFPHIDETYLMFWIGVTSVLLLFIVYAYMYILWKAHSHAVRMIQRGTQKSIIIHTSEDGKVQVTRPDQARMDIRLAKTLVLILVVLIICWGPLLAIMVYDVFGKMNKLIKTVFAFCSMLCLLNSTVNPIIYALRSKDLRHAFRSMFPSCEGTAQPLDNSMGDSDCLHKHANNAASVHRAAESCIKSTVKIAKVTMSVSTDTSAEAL
Procedure: as §2

human CB1 receptor [4] = biological target: T2, human CB1 receptor; assay: [3H]CP55,940 inhibition curves in membranes from CHO cells overexpressing human CB1; type: binding
Procedure: Membrane homogenates from CHO cells overexpressing human CB1 and CB2 receptors, as well as matched wild-type cells, were used to test newly synthesized compounds and were acquired from Sigma-Aldrich (St Louis, MO, USA).
as §1
A concentration of 0.02 mg/mL of commercial WT (as control) and CB1 and CB2 overexpressing CHO cells were used, and the same protocol described above was followed. Rat spleen homogenates were also used at a concentration of 0.1 mg/mL as a further characterization of binding to the CB2 receptor, given the high expression of this receptor in this tissue and the practical lack of CB1 in it.

[5] = nucleus basalis magnocellularis

- IC50 (cannabinoid receptors; high-affinity site of two-site fit, read-out: IC50Hi): 0.026 nM
- IC50 (cannabinoid receptors; low-affinity site of two-site fit, read-out: IC50Lo): 772 ± 49.4 nM
- inhibition of [3H]CP55,940 binding corresponding to the high-affinity binding site (cannabinoid receptors; rat cortex membranes): approximately 18%
- inhibition of [3H]CP55,940 binding corresponding to the low-affinity binding site (cannabinoid receptors; rat cortex membranes): ~40%
- total inhibition of [3H]CP55,940 binding (cannabinoid receptors; rat cortex membranes): about 58%
- activity on CP55,940-evoked [35S]GTPγS stimulation (CB1 receptor [1]; rat brain slices, 10 µM, result in words): acts as an antagonist
- [35S]GTPγS binding, Stimulation (% over basal), CP55,940 + UVI3502 (CB1 receptor [1]; amygdala): -47 ± 30 % over basal
- [35S]GTPγS binding, Stimulation (% over basal) (CB1 receptor [1]; amygdala): -35 ± 19 % over basal
- [35S]GTPγS binding, Stimulation (% over basal), CP55,940 + UVI3502 (CB1 receptor [1]; cerebellum (gray matter)): -46 ± 31 % over basal
- [35S]GTPγS binding, Stimulation (% over basal) (CB1 receptor [1]; cerebellum (gray matter)): -16 ± 51 % over basal
- [35S]GTPγS binding, Stimulation (% over basal), CP55,940 + UVI3502 (CB1 receptor [1]; cortex): -60 ± 10 % over basal
- [35S]GTPγS binding, Stimulation (% over basal) (CB1 receptor [1]; cortex): -45 ± 24 % over basal
- [35S]GTPγS binding, Stimulation (% over basal), CP55,940 + UVI3502 (CB1 receptor [1]; globus pallidus): 89 ± 42 % over basal
- [35S]GTPγS binding, Stimulation (% over basal) (CB1 receptor [1]; globus pallidus): -3 ± 46 % over basal
- [35S]GTPγS binding, Stimulation (% over basal), CP55,940 + UVI3502 (CB1 receptor [1]; hippocampus dorsal): -62 ± 6 % over basal
- [35S]GTPγS binding, Stimulation (% over basal) (CB1 receptor [1]; hippocampus dorsal): -40 ± 26 % over basal
- [35S]GTPγS binding, Stimulation (% over basal), CP55,940 + UVI3502 (CB1 receptor [1]; [5]): -40 ± 11 % over basal
- [35S]GTPγS binding, Stimulation (% over basal) (CB1 receptor [1]; [5]): -35 ± 30 % over basal
- [35S]GTPγS binding, Stimulation (% over basal), CP55,940 + UVI3502 (CB1 receptor [1]; striatum): -54 ± 23 % over basal
- [35S]GTPγS binding, Stimulation (% over basal) (CB1 receptor [1]; striatum): -34 ± 25 % over basal
- [35S]GTPγS binding, Stimulation (% over basal), CP55,940 + UVI3502 (CB1 receptor [1]; substantia nigra): 14 ± 80 % over basal
- [35S]GTPγS binding, Stimulation (% over basal) (CB1 receptor [1]; substantia nigra): -41 ± 24 % over basal
- EC50 (CB1 receptor [2]; slight decrease of baseline [35S]GTPγS binding, rat brain cortex membrane homogenates): 4.06 ± 3.27 nM
- IC50 (human CB1 receptor [4]): 4640 ± 1600 nM
- total inhibition of [3H]CP55,940 binding (human CB1 receptor [4]; CB1 overexpressing CHO membranes): approximately 38%
SMILES: CCOC(=O)/C=C1\C(=O)Nc2ccc(C)cc2-c2c1c1cc(OC)ccc1n2C(=O)OCC [UVI3502]
- affinity for cannabinoid receptors (inhibition of [3H]CP55,940 binding) (cannabinoid receptors; rat cortex membranes, result in words): showed affinity for cannabinoid receptors
- stimulation of [35S]GTPγS binding (coupling of CB1 to Gi/o proteins) (CB1 receptor [2]; rat cortex membrane homogenates, result in words): does not; also recorded: did not stimulate the coupling of CB1 receptors to Gi/o proteins
- stimulation of [35S]GTPγS binding (coupling of CB1 to Gi/o proteins) (human CB1 receptor [3]): does not; also recorded: did not stimulate the coupling of CB1 receptors to Gi/o proteins
